The record followed here is US8076359B2, “Renin inhibitors” (Merck Canada Inc., priority 2006, dated 2011).

The target of one experiment is T1, renin in human plasma (Homo sapiens, UniProt P00797).
T1 construct: host or cells: recombinant enzyme added to human plasma from 10 normal donors
T1 sequence (P00797 67-406): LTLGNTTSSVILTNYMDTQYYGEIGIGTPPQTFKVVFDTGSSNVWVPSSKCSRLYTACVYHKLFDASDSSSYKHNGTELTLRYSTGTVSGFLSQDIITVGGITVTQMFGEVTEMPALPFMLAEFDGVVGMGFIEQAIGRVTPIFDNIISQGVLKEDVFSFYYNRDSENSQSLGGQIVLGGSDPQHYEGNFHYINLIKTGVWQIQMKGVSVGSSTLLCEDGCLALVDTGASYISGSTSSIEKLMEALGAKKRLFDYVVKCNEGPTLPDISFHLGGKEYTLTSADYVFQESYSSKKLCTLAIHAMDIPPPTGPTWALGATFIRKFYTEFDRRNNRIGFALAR
The experiment in a line: Inhibition of renin in human plasma (enzymatic in vitro assay, Ang I detected by EIA). The class given is biochemical. The settings on record: human plasma from 10 normal donors; human recombinant renin 3 pM; 37° C. for 2 h. The protocol: Inhibition of Renin in Human Plasma
The enzymatic in vitro assay was performed in 384-well polypropylene plates (Nunc). The assay buffer consisted of PBS (Gibco BRL) including 1 mM EDTA and 0.1% BSA. The reaction mixture was composed of 80 μL per well of human plasma, enzyme, Ang I-antibodies mix and 5 μL of renin inhibitors in DMSO. The human plasma mix was premixed at 4° C. and consists of • human plasma from 10 normal donors • human recombinant renin (3 pM) • Ang I-antibodies. The mixtures were then incubated at 37° C. for 2 h.
To determine the enzymatic activity and its inhibition, the accumulated Ang I was detected by an enzyme immunoassay (EIA) in 384-well plates (Nunc). 10 μL of the reaction mixture or standards were transferred to immuno plates which were previously coated with a covalent complex of Ang I and bovine serum albumin (Ang I-BSA). 70 μL assay buffer were added and the plates were incubated at 4° C. overnight. The plates were washed 3 times with PBS including 0.01% Tween 20, and then incubated for 2 h at RT with an anti rabbit-peroxidase coupled antibody (WA 934, Amersham).

A further experiment deals with T2, human recombinant renin (Homo sapiens, UniProt P00797).
T2 sequence (P00797 67-406): T1 sequence (P00797 67-406)
Nature of the experiment: Inhibition of human recombinant renin (enzymatic in vitro assay in buffer, Ang I detected by EIA). In kind it is biochemical. The settings on record: assay buffer PBS, 1 mM EDTA, 0.1% BSA; human recombinant renin 40 pM; 37° C. for 3 h. The protocol:
Inhibition of Human Recombinant Renin
The enzymatic in vitro assay was performed in 384-well polypropylene plates (Nunc). The assay buffer consisted of PBS (Gibco BRL) including 1 mM EDTA and 0.1% BSA. The reaction mixture were composed of 47.5 μL per well of an enzyme mix and 2.5 μL of renin inhibitors in DMSO. The enzyme mix was premixed at 4° C. and consists of the following components: • human recombinant renin (40 pM) • synthetic human angiotensin(1-14) (0.5 μM) • hydroxyquinoline sulfate (1 mM) The mixtures were then incubated at 37° C. for 3 h. The enzyme reaction was stopped by placing the reaction plate on wet ice.
To determine the enzymatic activity and its inhibition, the accumulated Ang I was detected by an enzyme immunoassay (EIA) in 384-well plates (Nunc). 5 μL of the reaction mixture or standards were transferred to immuno plates which were previously coated with a covalent complex of Ang I and bovine serum albumin (Ang I-BSA). 75 μL of Ang I-antibodies in assay buffer above including 0.01% Tween 20 were added and the plates were incubated at 4° C. overnight.
An alternative protocol could be used by stopping the enzymatic reaction with 0.02N final concentration of HCl. 5 μL of the reaction mixture or standards were transferred to immuno plates and 75 μL of Ang I-antibodies in assay buffer above including 0.01% Tween 20 were added and the plates were incubate at RT for 4 h. […]

The IC50 is the concentration needed to halve the response being measured.

Consider `COCCCc1cc(CN(C(=O)[C@H]2CNCC[C@@H]2c2ccc(OCCOc3c(Cl)cc(C)cc3Cl)nc2)C2CC2)cc(OCCOC)c1` [Example 2, (3R,4S)-N-Cyclopropyl-4-{6-[2-(2,6-dichloro-4-methylphenoxy)ethoxy]pyridin-3-yl}-N-[3-(2-methoxyethoxy)-5-(3-methoxypropyl)benzyl]piperidine-3-carboxamide], for which the half-inhibitory concentration (IC50) was 6 nM on renin in human plasma and 0.022 nM at human recombinant renin.
Turning to `COCCCc1cc(CN(C(=O)[C@H]2CNCC[C@@H]2c2ccc(OCCOc3c(Cl)cc(C)cc3Cl)cc2)C2CC2)cc(OC[C@@H]2C[C@H]2CO)c1` [Example 8], the IC50 at renin in human plasma was 2.6 nM; at human recombinant renin, 0.036 nM.
